Assay results: paper PMC10819521 (Pharmaceutics, 2024)
Values joined by “and” are separate entries in the source; they are usually repeats but may differ in a detail not shown here. Identical values can stand only once.

Assays:
[1] = target: T1, Human isolated cathepsin L (Homo sapiens, UniProt P07711); assay: Cathepsin L assay (chromogenic substrate Z-Phe-Arg-pNA); assay type: biochemical; conditions: 50 µM inhibitor, 60 min, 100% = no inhibitor, n.i. = residual activity ≥ 95%; for remaining activity at 50 µM: read-out: Percentage residual activity of human cathepsin L
T1 construct: Human isolated cathepsin L (Enzo Life Sciences) was assayed spectrophotometrically; purchased Enzo Life Sciences
Protocol: (§1) Cathepsin assays. Assays with human cathepsins B, S, L, and K were carried out as described previously. Stock solutions of substrates and inhibitors were prepared in DMSO. The final DMSO concentration was 2%. All test compounds were investigated in duplicate at a concentration of 50 µM to determine residual activities based on endpoints of substrate consumption after 60 min. Ki values were obtained in duplicate measurements with six different inhibitor concentrations, and 60-min-progress curves were analyzed by linear regression. IC50 values were obtained by non-linear regression using the equation vi = v0/(1 + ([I]/IC50), where vi is the product formation rate at different inhibitor concentrations, v0 is the uninhibited product formation rate, [I] is the inhibitor concentration, and IC50 is the half-maximal inhibitory concentration. IC50 values are transformed to Ki values using the Cheng-Prusoff equation.
Human isolated cathepsin L (Enzo Life Sciences) was assayed spectrophotometrically (Cary 50 Bio, Varian) at 405 nm and 37 °C. The assay buffer was 100 mM sodium phosphate buffer pH 6.0, 100 mM NaCl, 5 mM EDTA, and 0.01% Brij 35. For activation, an enzyme stock solution was diluted with assay buffer containing 5 mM DTT and incubated for 30 min at 37 °C. The final concentration of the chromogenic substrate Z-Phe-Arg-pNA was 100 µM (5.88 × Km).
(§2) Cathepsins inhibition. Compounds 4a–l were then evaluated for their ability to inhibit Cat S. Besides Cat S, the set of assays included three related human cathepsins, B, L, and K, all members of the class of lysosomal cysteine proteases (see Table S1 in the Supporting Information). Following reported procedures, [39, 40, 41] percentage or residual activities were determined using chromogenic or fluorogenic peptide substrates, with endpoints measured after 60 min of substrate consumption. To determine Ki values, progress curves were followed over 60 min and analyzed by linear regression. Ki values were then obtained by non-linear regression.

[2] = target: T2, Human isolated cathepsin B (Homo sapiens, UniProt P07858); assay: Cathepsin B assay (chromogenic substrate Z-Arg-Arg-pNA); assay type: biochemical; conditions: 50 µM inhibitor, 60 min, 100% = no inhibitor, n.i. = residual activity ≥ 95%; for remaining activity at 50 µM: read-out: Percentage residual activity of human cathepsin B
T2 construct: Human isolated cathepsin B (Calbiochem) was assayed spectrophotometrically; purchased Calbiochem
Protocol: as §1
Human isolated cathepsin B (Calbiochem) was assayed spectrophotometrically (Cary 50 Bio, Varian) at 405 nm and 37 °C. Assay buffer was 100 mM sodium phosphate buffer pH 6.0, 100 mM NaCl, 5 mM EDTA, 0.01% Brij 35. For activation, an enzyme stock solution was diluted with assay buffer containing 5 mM DTT and incubated for 30 min at 37 °C. The final concentration of the chromogenic substrate Z-Arg-Arg-pNA was 500 µM (0.45 × Km).
as §2

[3] = target: T3, Human recombinant cathepsin S (Homo sapiens, UniProt P25774); assay: Cathepsin S assay (fluorogenic substrate Z-Phe-Arg-AMC); assay type: biochemical; conditions: for remaining activity at 50 µM: 50 µM inhibitor, 60 min, 100% = no inhibitor, n.i. = residual activity ≥ 95%, read-out: Percentage residual activity of human cathepsin S; for Ki: Ki ± SEM, n.i. = no inhibition, residual activity ≥ 95% at 50 μM, read-out: CatS Ki
T3 construct: purchased Enzo Life Sciences
Protocol: as §1
Human recombinant cathepsin S (Enzo Life Sciences) was assayed fluorometrically (FLUOstar Optima plate reader, BMG Labtech) at 25 °C with an emission wavelength of 360 nm and an absorption wavelength of 460 nm. The assay buffer was 100 mM sodium phosphate buffer pH 6.0, 100 mM NaCl, 5 mM EDTA, 0.01% Brij 35. For activation, an enzyme stock solution was diluted with assay buffer containing 5 mM DTT and incubated for 60 min at 37 °C.
as §2

[4] = tested on: voltage-gated calcium channels; assay: Calcium channel blockade (FLIPR Calcium 6 indicator, SH-SY5Y cells); assay type: cell-based, human; conditions: compounds at 10 µM, KCl/CaCl2 stimulation, n.i. = no inhibition
Protocol: Calcium channel blockade. Evaluation of the calcium channel blockade of compounds 4a–l was performed using the FLIPR Calcium 6 indicator according to a previously established protocol. Briefly, human neuroblastoma cell line SH-SY5Y seeded out on 96-well plate were treated with fluorescent calcium indicator (FLIPR Calcium 6, Molecular Devices). Cells were incubated with indicator for 2 h at 37 °C, facilitating internalization of the indicator. Subsequently, cells were exposed to nimodipine (10 µM, used as reference inhibitor), DMSO (0.1%, used as vehicle control) or our compounds of interest (10 µM) for 10 min also at 37 °C. Following that, cell fluorescence was recorded using a microplate reader (λEx = 485 nm; λEm = 525 nm). Baseline fluorescence was recorded for 5 s. Afterwards, cells were stimulated by the addition of the solution of KCl and CaCl2 (90 and 5 mM, respectively) in order to induce the opening of voltage-gated calcium channels. An increase in fluorescence of calcium indicator after inducing calcium flux was recorded for another 30 s. Data were collected from three independent experiments, with eight technical replicates per experiment. Fluorescence intensity values were normalized to the baseline recorded before the induction of calcium flux. The percentage of inhibition was calculated as a reduction of normalized calcium flux in comparison with the DMSO vehicle control. Outliers were detected using the Grubbs test, and any outlying values were excluded from further analysis.
Calcium channel blockade. The Ca^2+ channel blocking capacity of compounds 4a–l and nimodipine, used as a standard at a concentration of 10 μM, was evaluated according to an established methodology.

[5] = target: T4, Human recombinant cathepsin K (Homo sapiens, UniProt P43235); assay: Cathepsin K assay (substrate Z-Leu-Arg-AMC); assay type: biochemical; conditions: 50 µM inhibitor, 60 min, 100% = no inhibitor, n.i. = residual activity ≥ 95%; for remaining activity at 50 µM: read-out: Percentage residual activity of human cathepsin K
T4 construct: purchased Enzo Life Sciences
T4 sequence (P43235 115-329): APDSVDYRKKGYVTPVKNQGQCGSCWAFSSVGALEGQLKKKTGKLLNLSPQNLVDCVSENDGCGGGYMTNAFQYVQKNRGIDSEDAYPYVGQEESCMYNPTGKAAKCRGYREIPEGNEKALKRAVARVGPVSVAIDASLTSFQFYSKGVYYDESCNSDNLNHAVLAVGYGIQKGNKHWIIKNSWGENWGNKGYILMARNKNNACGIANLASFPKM
Protocol: as §1
Human recombinant cathepsin K (Enzo Life Sciences) was assayed fluorometrically (FLUOstar Optima plate reader, BMG Labtech) with an emission wavelength of 360 nm and an absorption wavelength of 460 nm. The assay buffer was 100 mM sodium citrate pH 5.0, 100 mM NaCl, 1 mM EDTA, 0.01% CHAPS. For activation, an enzyme stock solution was diluted with assay buffer containing 5 mM DTT and incubated for 30 min at 37 °C. The final concentration of the chromogenic substrate Z-Leu-Arg-AMC was 40 µM (13.33 × Km).
as §2

[6] = Oxygen radical absorbance capacity assay (ORAC-FL); conditions: ORAC-FL method; mean ± SEM
Protocol: Oxygen radical absorbance capacity assay. The evaluation of the antioxidant activity of compounds 4a–l was carried out using the previously established ORAC-FL method, and detailed information is provided in the supporting information.
Antioxidant assay. The antioxidant assessment was conducted by evaluating the compounds 4a–l through the determination of oxygen radical absorbance capacity (ORAC) using the ORAC-Fluorescein (ORAC-FL) method […]
Oxygen radical absorbance capacity assay.
ORAC-FL method, using fluorescein as a fluorescent probe. Shortly, fluorescein and the antioxidants
2,2'-Azobis(amidinopropane)
(emission wavelength) every minute for 1 hour. […]

Nrf2-ARE = assay: Nrf2 transcriptional activation, cell-based luciferase assay; conditions: CD = concentration required to double the specific activity of the luciferase reporter; 24 h; read-out: Nrf2 Induction Potencies CD
Protocol: Nrf2 transcriptional activation potencies. The assessment of the Nrf2 transcriptional activation potencies of compounds 4a–l was carried out using the previously described method, and detailed information is provided in the supporting information.
Nrf2 transcriptional activation potencies of compounds 4a–l. […] AREc32 cells were exposed to escalating concentrations of each compound (1, 5, 10, 25, 50, 100, 125, and 150 μM) for 24 h to reach the cytotoxic threshold, followed by measurements of luciferase activity. Melatonin was used as a positive control.
4e H Cl H n.i. 76 n.i. […]
Nrf2 transcriptional activation potencies. The stable NRF2/ARE luciferase reporter HEK293 cell line
(Promega) according to the manufacturer's instructions. To assess cellular viability, the stable

T3 sequence (P25774 115-331): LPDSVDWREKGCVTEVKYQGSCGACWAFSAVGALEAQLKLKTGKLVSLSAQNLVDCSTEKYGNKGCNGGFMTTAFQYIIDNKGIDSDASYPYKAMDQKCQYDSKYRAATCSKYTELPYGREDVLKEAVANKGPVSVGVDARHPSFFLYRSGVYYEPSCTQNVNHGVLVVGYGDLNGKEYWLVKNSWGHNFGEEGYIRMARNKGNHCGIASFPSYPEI
T1 sequence (P07711 114-333): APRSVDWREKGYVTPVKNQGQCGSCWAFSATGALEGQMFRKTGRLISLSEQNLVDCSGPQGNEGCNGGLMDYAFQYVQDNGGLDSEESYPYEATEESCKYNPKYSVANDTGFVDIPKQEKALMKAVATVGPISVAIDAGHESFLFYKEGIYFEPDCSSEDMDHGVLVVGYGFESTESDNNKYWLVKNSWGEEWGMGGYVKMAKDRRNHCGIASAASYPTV

SMILES: C#CCNC(=O)C1=C(C)NC(C)=C(C(=O)NCC#C)C1c1cccc(Br)c1 [4h, 4-(3-Bromophenyl)-2,6-dimethyl-N3,N5-bis(prop-2-yn-1-yl)-1,4-dihydropyridine-3,5-dicarboxamide]
- remaining activity at 50 µM [1]: 87%
- remaining activity at 50 µM [2]: 71%
- remaining activity at 50 µM [3]: 54%
- Ki [3]: 55.3 ± 7.4 µM
- Calcium Channel Blockade (%) [4]: 7%
- Percentage residual activity of human cathepsin K [5]: n.i.
- ORAC [6]: 1.28 ± 0.05 Trolox equivalents

SMILES: C#CCN(C)C(=O)C1=C(C)NC(C)=C(C(=O)N(C)CC#C)C1c1ccccc1OC [4k, 4-(2-Methoxyphenyl)-N2,N3,5,6-tetramethyl-N3,N5-bis(prop-2-yn-1-yl)-1,4-dihydropyridine-3,5-dicarboxamide]
- remaining activity at 50 µM [1]: 92%
- remaining activity at 50 µM [2]: 86%
- EC50 (Nrf2-ARE): 69.4 ± 9.1 µM
- remaining activity at 50 µM [3]: 79%
- Calcium Channel Blockade (%) [4]: 14%
- remaining activity at 50 µM [5]: 82%
- ORAC [6]: n.i.

SMILES: C#CCNC(=O)C1=C(C)NC(C)=C(C(=O)NCC#C)C1c1cccc2nonc12 [4d, 4-(2,1,3-Benzoxadiazol-4-yl)-2,6-dimethyl-N3,N5-bis(prop-2-yn-1-yl)-1,4-dihydropyridine-3,5-dicarboxamide]
- remaining activity at 50 µM [1]: 90%
- Percentage residual activity of human cathepsin B [2]: n.i.
- remaining activity at 50 µM [3]: 77%
- Calcium Channel Blockade (%) [4]: 10%
- remaining activity at 50 µM [5]: 62%
- ORAC [6]: 1.23 ± 0.23 Trolox equivalents

SMILES: C#CCN(C)C(=O)C1=C(C)NC(C)=C(C(=O)N(C)CC#C)C1c1ccccc1Cl [4i, 4-(2-Chlorophenyl)-N2,N3,5,6-tetramethyl-N3,N5-bis(prop-2-yn-1-yl)-1,4-dihydropyridine-3,5-dicarboxamide]
- remaining activity at 50 µM [1]: 91%
- remaining activity at 50 µM [2]: 87%
- EC50 (Nrf2-ARE): 96 ± 6.1 µM
- remaining activity at 50 µM [3]: 58%
- Ki [3]: 69.3 ± 5.2 µM
- Calcium Channel Blockade (%) [4]: 11%
- remaining activity at 50 µM [5]: 65%
- ORAC [6]: 1.93 Trolox equivalents and 1.93 ± 0.08 Trolox equivalents

SMILES: C#CCNC(=O)C1=C(C)NC(C)=C(C(=O)NCC#C)C1c1ccccc1Cl [4e, 4-(2-Chlorophenyl)-2,6-dimethyl-N3,N5-bis(prop-2-yn-1-yl)-1,4-dihydropyridine-3,5-dicarboxamide]
- Percentage residual activity of human cathepsin L [1]: n.i.
- Percentage residual activity of human cathepsin B [2]: n.i.
- remaining activity at 50 µM [3]: 76%
- Calcium Channel Blockade (%) [4]: n.i.
- remaining activity at 50 µM [5]: 85%
- ORAC [6]: 1.15 ± 0.02 Trolox equivalents

SMILES: C#CCN(C)C(=O)C1=C(C)NC(C)=C(C(=O)N(C)CC#C)C1c1cccc(OC)c1 [4l, 4-(3-Methoxyphenyl)-N2,N3,5,6-tetramethyl-N3,N5-bis(prop-2-yn-1-yl)-1,4-dihydropyridine-3,5-dicarboxamide]
- remaining activity at 50 µM [1]: 88%
- remaining activity at 50 µM [2]: 86%
- EC50 (Nrf2-ARE): 81.7 ± 11.6 µM
- remaining activity at 50 µM [3]: 79%
- Calcium Channel Blockade (%) [4]: 15%
- remaining activity at 50 µM [5]: 81%
- ORAC [6]: 0.96 ± 0.07 Trolox equivalents

SMILES: C#CCNC(=O)C1=C(C)NC(C)=C(C(=O)NCC#C)C1c1ccccc1OC [4f, 4-(2-Methoxyphenyl)-2,6-dimethyl-N3,N5-bis(prop-2-yn-1-yl)-1,4-dihydropyridine-3,5-dicarboxamide]
- remaining activity at 50 µM [1]: 86%
- remaining activity at 50 µM [2]: 71%
- remaining activity at 50 µM [3]: 67%
- Calcium Channel Blockade (%) [4]: 19%
- Percentage residual activity of human cathepsin K [5]: n.i.
- ORAC [6]: 1.34 ± 0.20 Trolox equivalents

SMILES: COCCOC(=O)C1=C(C)NC(C)=C(C(=O)OC(C)C)C1c1cccc([N+](=O)[O-])c1 (stereo not shown) [nimodipine, reference compound]
- Calcium Channel Blockade (%) [4]: 37%

SMILES: COc1ccc2[nH]cc(CCNC(C)=O)c2c1 [melatonin, reference compound]
- EC50 (Nrf2-ARE): 66.4 ± 16.4 µM

SMILES: C#CCNC(=O)C1=C(C)NC(C)=C(C(=O)NCC#C)C1c1ccccc1Br [4g, 4-(2-Bromophenyl)-2,6-dimethyl-N3,N5-bis(prop-2-yn-1-yl)-1,4-dihydropyridine-3,5-dicarboxamide]
- Percentage residual activity of human cathepsin L [1]: n.i.
- remaining activity at 50 µM [2]: 88%
- remaining activity at 50 µM [3]: 70%
- Calcium Channel Blockade (%) [4]: n.i.
- remaining activity at 50 µM [5]: 90%
- ORAC [6]: 1.43 ± 0.03 Trolox equivalents
